Experimental findings from publication PMC9516332 (Frontiers in Oncology, 2022) are described below.

Common to all, as to test: Kinase panel profiling at 1 µmol/L (MSA or IMAP), percentage inhibition
Holding throughout (type): biochemical

The target of assay [1] is panel of 255 wild-type kinases (Homo sapiens, UniProt P53779). To be noted: kinase JNK3; 1 µmol/L single concentration; read-out: %-inhibition at 1 µmol/L, JNK3.
Assay [2] deals with panel of 255 wild-type kinases (Homo sapiens, UniProt P49760). To be noted: kinase CLK2; 1 µmol/L single concentration; read-out: %-inhibition at 1 µmol/L, CLK2.
In assay [3] the target is T1, panel of 255 wild-type kinases (Homo sapiens, UniProt Q9NRM7).
T1 sequence (Q9NRM7 1-1088): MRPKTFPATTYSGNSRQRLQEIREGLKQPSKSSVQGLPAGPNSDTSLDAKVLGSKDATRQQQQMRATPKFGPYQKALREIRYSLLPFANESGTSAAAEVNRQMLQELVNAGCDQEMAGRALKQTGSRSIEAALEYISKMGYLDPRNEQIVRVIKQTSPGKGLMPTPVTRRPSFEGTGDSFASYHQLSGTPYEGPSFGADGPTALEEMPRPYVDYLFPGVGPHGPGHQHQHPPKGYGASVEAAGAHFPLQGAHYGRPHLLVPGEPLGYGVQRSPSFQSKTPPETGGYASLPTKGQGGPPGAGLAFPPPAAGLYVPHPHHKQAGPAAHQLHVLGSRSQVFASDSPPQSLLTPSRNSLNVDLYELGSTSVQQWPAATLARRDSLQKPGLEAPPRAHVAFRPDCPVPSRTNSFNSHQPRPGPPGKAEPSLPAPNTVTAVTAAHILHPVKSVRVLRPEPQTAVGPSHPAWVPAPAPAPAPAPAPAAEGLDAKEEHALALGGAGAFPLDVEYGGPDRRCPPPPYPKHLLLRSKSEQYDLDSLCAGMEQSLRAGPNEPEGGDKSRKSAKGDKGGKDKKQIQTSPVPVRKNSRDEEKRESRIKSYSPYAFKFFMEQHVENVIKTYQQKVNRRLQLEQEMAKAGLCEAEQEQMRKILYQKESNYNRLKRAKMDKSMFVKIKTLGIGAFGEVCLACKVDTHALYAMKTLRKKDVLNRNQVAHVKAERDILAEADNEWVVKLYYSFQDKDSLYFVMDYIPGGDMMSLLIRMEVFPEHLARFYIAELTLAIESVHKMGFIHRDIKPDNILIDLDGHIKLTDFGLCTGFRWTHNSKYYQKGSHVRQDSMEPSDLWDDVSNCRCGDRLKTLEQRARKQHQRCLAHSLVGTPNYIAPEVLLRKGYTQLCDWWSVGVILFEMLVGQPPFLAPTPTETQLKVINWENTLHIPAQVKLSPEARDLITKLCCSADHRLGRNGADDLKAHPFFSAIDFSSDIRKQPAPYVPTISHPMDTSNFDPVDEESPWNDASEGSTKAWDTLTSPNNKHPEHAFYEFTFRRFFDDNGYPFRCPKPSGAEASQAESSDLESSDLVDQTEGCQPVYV
The conditions noted are these: kinase LATS2; 1 µmol/L single concentration; read-out: %-inhibition at 1 µmol/L, LATS2.

The target in assay [4] is panel of 255 wild-type kinases (Homo sapiens, UniProt Q13177). The conditions noted are these: PAK2; 1 µmol/L single concentration; read-out: %-inhibition, PAK2.
Assay [5] deals with panel of 255 wild-type kinases (Homo sapiens, UniProt P23458). To be noted: kinase JAK1; 1 µmol/L single concentration; read-out: %-inhibition at 1 µmol/L, JAK1.
In assay [6] the target is panel of 255 wild-type kinases (Homo sapiens, UniProt Q9P0L2). The conditions noted are these: MARK1; 1 µmol/L single concentration; read-out: %-inhibition, MARK1.
Assay [7] concerns the target panel of 255 wild-type kinases (Homo sapiens, UniProt P09619). The conditions noted are these: kinase PDGFRβ; 1 µmol/L single concentration; read-out: %-inhibition at 1 µmol/L, PDGFRβ.
Assay [8] addresses T2, panel of 255 wild-type kinases (Homo sapiens, UniProt Q12866).
T2 sequence (Q12866 21-999): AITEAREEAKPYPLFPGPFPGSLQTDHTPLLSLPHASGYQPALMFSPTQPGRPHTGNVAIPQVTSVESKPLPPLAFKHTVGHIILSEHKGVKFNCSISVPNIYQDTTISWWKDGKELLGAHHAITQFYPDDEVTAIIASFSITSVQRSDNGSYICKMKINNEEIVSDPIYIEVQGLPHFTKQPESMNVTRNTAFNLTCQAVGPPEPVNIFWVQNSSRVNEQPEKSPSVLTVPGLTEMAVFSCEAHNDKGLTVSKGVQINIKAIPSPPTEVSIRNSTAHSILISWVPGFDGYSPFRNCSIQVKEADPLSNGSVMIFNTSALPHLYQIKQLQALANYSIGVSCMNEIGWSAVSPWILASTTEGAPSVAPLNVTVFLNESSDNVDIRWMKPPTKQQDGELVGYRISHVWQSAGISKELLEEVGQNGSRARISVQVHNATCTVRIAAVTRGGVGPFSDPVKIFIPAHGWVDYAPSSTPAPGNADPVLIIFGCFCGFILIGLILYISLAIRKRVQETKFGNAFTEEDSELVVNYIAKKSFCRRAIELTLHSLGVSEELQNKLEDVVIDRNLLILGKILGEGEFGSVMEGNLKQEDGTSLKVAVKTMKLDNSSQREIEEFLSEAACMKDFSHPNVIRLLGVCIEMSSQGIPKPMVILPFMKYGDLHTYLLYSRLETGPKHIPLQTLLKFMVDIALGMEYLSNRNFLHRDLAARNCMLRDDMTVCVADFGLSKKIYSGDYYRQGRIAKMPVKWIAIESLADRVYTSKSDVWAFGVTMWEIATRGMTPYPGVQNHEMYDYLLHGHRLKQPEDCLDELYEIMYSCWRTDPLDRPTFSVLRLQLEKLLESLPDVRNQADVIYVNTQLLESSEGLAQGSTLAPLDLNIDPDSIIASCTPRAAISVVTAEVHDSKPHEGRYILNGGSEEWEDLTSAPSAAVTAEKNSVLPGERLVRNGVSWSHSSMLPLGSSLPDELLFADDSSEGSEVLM
The conditions noted are these: MER; 1 µmol/L single concentration; read-out: %-inhibition, MER.

For assay [9], the target named is panel of 255 wild-type kinases (Homo sapiens, UniProt Q8IU85). The conditions noted are these: CaMK1δ kinase assay; 1 µmol/L single concentration; read-out: %-inhibition CaMK1δ.
Assay [10] deals with panel of 255 wild-type kinases (Homo sapiens, UniProt Q16512). The conditions noted are these: kinase PKN1; 1 µmol/L single concentration; read-out: %-inhibition at 1 µmol/L, PKN1.

For the compound `O=C(Nc1cnn2ccc(N3CCC[C@@H]3c3cc(F)ccc3F)nc12)N1CC[C@H](O)C1` [larotrectinib], the inhibition at 1 µM is -7% in assay [1]; 9% in assay [2]; -3% in assay [3]; -10% in assay [4]; 0.894% in assay [5]; -6.38% in [6]. Also, the inhibition at 1 µM in assay [7] was -0.157%; in assay [8] it was 6%; in [9] it was 3.44%; in assay [10], 7%.
